In brackets after ≈: the same amount, converted by molar mass. Where two headings read alike, the source gives them in different places.
How the values were obtained:
[1] = tested on: Staphylococcus aureus NR 2855; assay: in vitro antibacterial activity, standard agar dilution method; format: cell-based; details: NR2855; Staphylococcus aureus NR 2855; aerobic; agar dilution; read-out: minimum inhibitory concentration (MIC)
[2] = acute toxicity by oral administration; details: mouse, in vivo; oral administration, ICR mice; read-out: LD50
Description: The acute toxicity of these compounds was examined by oral administration in ICR mice.

[3] = tested on: Bordetella bronchiseptica ATCC 4617; assay: in vitro antibacterial activity, standard agar dilution method; format: cell-based; details: ATCC4617, aerobic, read-out: minimum inhibitory concentration (MIC)
[4] = tested on: Enterococcus faecalis NR 2943; assay: as above; format: cell-based; details: NR2943, aerobic, read-out: minimum inhibitory concentration (MIC)
[5] = tested on: Enterobacter aerogenes NR 2945; assay: as above; format: cell-based; details: Klebsiella aerogenes, NR2945, aerobic, read-out: minimum inhibitory concentration (MIC)
[6] = tested on: Serratia marcescens IFO 12648; assay: as above; format: cell-based; details: IFO12648, aerobic, read-out: minimum inhibitory concentration (MIC)
[7] = tested on: Proteus rettgeri ATCC 14505; assay: as above; format: cell-based; details: Providencia rettgeri, ATCC14505, aerobic, read-out: minimum inhibitory concentration (MIC)
[8] = tested on: Pseudomonas aeruginosa NR 2950; assay: as above; format: cell-based; details: NR2950, aerobic, read-out: minimum inhibitory concentration (MIC)
[9] = tested on: Salmonella typhimurium IFO 12529; assay: as above; format: cell-based; details: Salmonella enterica, aerobic, read-out: minimum inhibitory concentration (MIC)
[10] = tested on: Staphylococcus aureus FDA 209P JC-1; assay: as above; format: cell-based; details: FDA209P, read-out: minimum inhibitory concentration (MIC)
[11] = tested on: Escherichia coli NIHJ JC-2; assay: as above; format: cell-based; details: NIHJJC2, aerobic, read-out: minimum inhibitory concentration (MIC)
[12] = tested on: Citrobacter freundii IFO 12681; assay: as above; format: cell-based; details: IFO12681, aerobic, read-out: minimum inhibitory concentration (MIC)
[13] = tested on: Staphylococcus epidermidis IFO 12993; assay: as above; format: cell-based; details: IFO12993, aerobic, read-out: minimum inhibitory concentration (MIC)
[14] = tested on: Staphylococcus aureus Smith; assay: as above; format: cell-based; details: read-out: minimum inhibitory concentration (MIC)
[15] = tested on: Pseudomonas stutzeri IFO 12695; assay: as above; format: cell-based; details: Stutzerimonas stutzeri, IFO12695, aerobic, read-out: minimum inhibitory concentration (MIC)
[16] = tested on: Alcaligenes faecalis IFO 13111; assay: as above; format: cell-based; details: IFO13111, aerobic, read-out: minimum inhibitory concentration (MIC)
[17] = tested on: Enterobacter cloacae NR 2946; assay: as above; format: cell-based; details: NR2946, aerobic, read-out: minimum inhibitory concentration (MIC)
[18] = tested on: Staphylococcus epidermidis NR 2942; assay: as above; format: cell-based; details: NR2942, aerobic, read-out: minimum inhibitory concentration (MIC)
[19] = tested on: Bacillus subtilis PCI 219; assay: as above; format: cell-based; details: PCI219, aerobic, read-out: minimum inhibitory concentration (MIC)
[20] = tested on: Pseudomonas aeruginosa A3; assay: as above; format: cell-based; details: aerobic, read-out: minimum inhibitory concentration (MIC)
Escherichia coli NR 2630 = assay: as above; format: cell-based
[21] = tested on: Proteus vulgaris OX19 ATCC 6898; assay: as above; format: cell-based; details: ATCC6898, aerobic, read-out: minimum inhibitory concentration (MIC)
[22] = tested on: Klebsiella pneumoniae FDA PCI 602; assay: as above; format: cell-based; details: FDAPCI602, aerobic, read-out: minimum inhibitory concentration (MIC)
Escherichia coli ML4707 = assay: in vivo therapeutic efficacy, lethal systemic infection in mice; details: Escherichia coli, ML4707, po, 120 h, E. coli ML4707 i.p. infection, ICR mice, p.o. at time of injection, mortality 5 days; read-out: 50% effective dose (ED50)
Description: The in vivo antibacterial activities of pyrido[3,2,1-ij]-1,3,4-benzoxadiazine derivatives prepared by Example 5, Example 30, Example 65 and Example 66 as mentioned below were tested against lethal infection of Escherichia coli ML4707, Pseudomonas aeruginosa 4au542 and Streptococcus pneumoniae 6-001. ICR mice weighing about 20 g were infected by intraperitoneal injection of a corresponding bacterial suspension. The test compounds were administered orally or subcutaneously at the time of injection. […] The respective 50% effective dose (ED50, mg/kg) which protects 50% of the animals from death caused by infection, is shown in Table 3.

[23] = NR2630, Escherichia coli NR 2630, aerobic, agar dilution, read-out: minimum inhibitory concentration (MIC)

Q: For `CC1CN(c2c(F)cc3c(=O)c(C(=O)O)cn4c3c2OCN4C)CCN1C` (stereo not shown) [Example 36, 10-(3,4-dimethyl-1-piperazinyl)-9-fluoro-3-methyl-7-oxo-2,3-dihydro-7H-pyrido[3,2,1-ij]-1,3,4-benzoxadiazine-6-carboxylic acid], which MIC [1] is on record?
A: 0.1 µg/mL (≈ 0.266 µM)

Q: And the LD50 [2]?
A: > 2000 mg/kg

Q: What about the MIC [3] of the same molecule?
A: 0.39 µg/mL (≈ 1.04 µM)

Q: And the MIC [4]?
A: 3.13 µg/mL (≈ 8.32 µM)

Q: And the MIC [5]?
A: 0.05 µg/mL (≈ 0.133 µM)

Q: What about the MIC [6] of the same molecule?
A: 0.39 µg/mL (≈ 1.04 µM)

Q: And the MIC [7]?
A: 0.78 µg/mL (≈ 2.07 µM)

Q: And the MIC [8]?
A: 6.25 µg/mL (≈ 16.6 µM)

Q: What about the MIC [9] of the same molecule?
A: 0.1 µg/mL (≈ 0.266 µM)

Q: And the MIC ([10]; Staphylococcus aureus FDA 209P JC-1, aerobic, agar dilution)?
A: 0.39 µg/mL (≈ 1.04 µM)

Q: What about the MIC [11] of the same molecule?
A: 0.1 µg/mL (≈ 0.266 µM)

Q: What about the MIC [12] of the same molecule?
A: 0.2 µg/mL (≈ 0.531 µM)

Q: What about the MIC [13] of the same molecule?
A: 0.2 µg/mL (≈ 0.531 µM)

Q: What about the MIC ([14]; Staphylococcus aureus Smith, aerobic, agar dilution) of the same molecule?
A: 0.1 µg/mL (≈ 0.266 µM)

Q: And the MIC [15]?
A: 0.1 µg/mL (≈ 0.266 µM)

Q: And the MIC [16]?
A: 3.13 µg/mL (≈ 8.32 µM)

Q: And the MIC [17]?
A: 0.1 µg/mL (≈ 0.266 µM)

Q: What about the MIC [18] of the same molecule?
A: 0.2 µg/mL (≈ 0.531 µM)

Q: What about the MIC [19] of the same molecule?
A: 0.025 µg/mL (≈ 0.0664 µM)

Q: What about the MIC [20] of the same molecule?
A: 0.78 µg/mL (≈ 2.07 µM)

Q: And the MIC (Escherichia coli NR 2630; [23])?
A: 0.05 µg/mL (≈ 0.133 µM)

Q: What about the MIC [21] of the same molecule?
A: 0.025 µg/mL (≈ 0.0664 µM)

Q: What about the MIC [22] of the same molecule?
A: 0.39 µg/mL (≈ 1.04 µM)

Q: What does the source list for `CN1COc2c(N3CCNCC3)c(F)cc3c(=O)c(C(=O)O)cn1c23` [Example 6, 9-fluoro-3-methyl-7-oxo-10-(1-piperazinyl)-2,3-dihydro-7H-pyrido[3,2,1-ij]-1,3,4-benzoxadiazine-6-carboxylic acid]?
A: MIC [1]: 3.13 µg/mL (≈ 8.99 µM); LD50 [2]: > 2000 mg/kg; MIC [3]: 6.25 µg/mL (≈ 17.9 µM); MIC [4]: 12.5 µg/mL (≈ 35.9 µM); MIC [5]: 0.013 µg/mL (≈ 0.0373 µM); MIC [6]: 0.1 µg/mL (≈ 0.287 µM); MIC [7]: 0.1 µg/mL (≈ 0.287 µM); MIC [8]: 0.78 µg/mL (≈ 2.24 µM); MIC [9]: 0.013 µg/mL (≈ 0.0373 µM); MIC ([10]; Staphylococcus aureus): 0.39 µg/mL (≈ 1.12 µM); MIC [11]: 0.025 µg/mL (≈ 0.0718 µM); MIC [12]: 0.013 µg/mL (≈ 0.0373 µM); MIC [13]: 1.56 µg/mL (≈ 4.48 µM); MIC ([14]; Staphylococcus aureus): 0.39 µg/mL (≈ 1.12 µM); MIC [15]: 0.025 µg/mL (≈ 0.0718 µM); MIC [16]: 3.13 µg/mL (≈ 8.99 µM); MIC [17]: 0.025 µg/mL (≈ 0.0718 µM); MIC [18]: 1.56 µg/mL (≈ 4.48 µM); MIC [19]: 0.1 µg/mL (≈ 0.287 µM); MIC [20]: 0.1 µg/mL (≈ 0.287 µM); MIC (Escherichia coli NR 2630; Escherichia coli, NR2630, read-out: minimum inhibitory concentration (MIC)): 0.025 µg/mL (≈ 0.0718 µM); MIC [21]: 0.013 µg/mL (≈ 0.0373 µM); MIC [22]: 0.1 µg/mL (≈ 0.287 µM)

Q: With `CN1COc2c(-n3ccnc3)c(F)cc3c(=O)c(C(=O)O)cn1c23` [Example 56, 9-fluoro-10-(1-imidazolyl)-3-methyl-7-oxo-2,3-dihydro-7H-pyrido[3,2,1-ij]-1,3,4-benzoxadiazine-6-carboxylic acid] as the molecule, how does the MIC [1] read?
A: 0.78 µg/mL (≈ 2.36 µM)

Q: What about the LD50 [2] of the same molecule?
A: > 2000 mg/kg

Q: And the MIC [3]?
A: 3.13 µg/mL (≈ 9.48 µM)

Q: And the MIC [4]?
A: 12.5 µg/mL (≈ 37.8 µM)

Q: What about the MIC [5] of the same molecule?
A: 0.1 µg/mL (≈ 0.303 µM)

Q: And the MIC [6]?
A: 0.78 µg/mL (≈ 2.36 µM)

Q: And the MIC [7]?
A: 1.56 µg/mL (≈ 4.72 µM)

Q: And the MIC [8]?
A: 6.25 µg/mL (≈ 18.9 µM)

Q: What about the MIC [9] of the same molecule?
A: 0.05 µg/mL (≈ 0.151 µM)

Q: And the MIC ([10]; Staphylococcus aureus)?
A: 0.39 µg/mL (≈ 1.18 µM)

Q: And the MIC [11]?
A: 0.1 µg/mL (≈ 0.303 µM)

Q: And the MIC [12]?
A: 0.1 µg/mL (≈ 0.303 µM)

Q: What about the MIC [13] of the same molecule?
A: 0.39 µg/mL (≈ 1.18 µM)

Q: And the MIC ([14]; Staphylococcus aureus)?
A: 0.39 µg/mL (≈ 1.18 µM)

Q: What about the MIC [15] of the same molecule?
A: 0.0033 µg/mL (≈ 0.00999 µM)

Q: And the MIC [16]?
A: 3.13 µg/mL (≈ 9.48 µM)

Q: What about the MIC [17] of the same molecule?
A: 0.05 µg/mL (≈ 0.151 µM)

Q: What about the MIC [18] of the same molecule?
A: 0.39 µg/mL (≈ 1.18 µM)

Q: And the MIC [19]?
A: 0.2 µg/mL (≈ 0.606 µM)

Q: What about the MIC [20] of the same molecule?
A: 3.13 µg/mL (≈ 9.48 µM)

Q: What about the MIC (Escherichia coli NR 2630; [23]) of the same molecule?
A: 0.0065 µg/mL (≈ 0.0197 µM)

Q: And the MIC [21]?
A: 0.013 µg/mL (≈ 0.0394 µM)

Q: What about the MIC [22] of the same molecule?
A: 0.39 µg/mL (≈ 1.18 µM)

Q: With `CCOC(=O)c1cn2c3c(c(N4CCC(N)C4)c(F)cc3c1=O)OCN2C` (stereo not shown) [Example 65, ethyl 10-(3-amino-1-pyrrolidinyl)-9-fluoro-3-methyl-7-oxo-2,3-dihydro-7H-pyrido[3,2,1-ij]-1,3,4-benzoxadiazine-6-carboxylate] as the molecule, how does the ED50 (Escherichia coli ML4707) read?
A: 1.12 mg/kg

Reference: US4864023A, “Pyrido(3,2,1-IJ)-1,3,4-benzoxadiazine derivatives” (priority 1988, dated 1989)
